Results taken from US6541468B1, “Indolocarbazole derivatives useful for the treatment of neurodegenerative diseases and cancer” (Bayer Corporation, priority 1998, dated 2003).

Key:
tau hyperphosphorylation [1] = assay: Okadaic acid induced AD-like tau hyperphosphorylation in SY5Y cells; type: cell-based, human; conditions: for IC50: Homo sapiens
Procedure: SKNSH-SY 5Y cells were plated on fibronectin-coated 6 well (30 mm^2) culture dishes (Biocoat®, Collaborative Biomedical Products, Inc.) and grown to confluence in 5 mL of 50% D-MEM/50% F-12 Nutrient Mixture (Ham) supplemented with 15% heat-inactivated bovine serum (JRH Bioscience), 0.1 mM non-essential amino acids solution, 2 mM glutamine and pen/strep/fungizone (GibcoBRL Life Technologies, Inc.). Cell culture medium was changed every 48 hours.
For drug testing, cells were routinely pretreated with inhibitors in 1 mL (30 mm2) for 60 min at concentrations of 30 nM, 100 nM, 300 nM, […]. Compound stocks were all at 10 mM in DMSO and dilutions were made in DMSO. Cells were then treated with 1 μM okadaic acid (ammonium salt; LC Laboratories, dissolved at 1 mM in DMSO) for 90 min. All experiments, including controls, contained a final concentration of between 0.5 and 1% DMSO.
Cells were detached from 30 mm^2 plates and suspended into 1 mL of ice-cold PBS by gentle trituration, transferred into microcentrifuge tubes and sedimented for 12 seconds at 14,000×g. The supernatant was removed and cells were lysed in 250 μl cold homogenization buffer (50 mM MES, pH 5.8, 5 mM sodium pyrophosphate, 50 mM p-nitrophenylphosphate, 1 μM okadaic acid, 2 mM Na-orthovandate, 1 mM EDTA, 1 mM EGTA, 1 mM DTT, 10^ glycerol, 10 μM leupeptin, 1 μM pepstatin, 1 mg/mL aprotinin, 10 μM chymostatin, 1 mM PMSF, and 1% TRITON® x100) and vortexed briefly to aid in lysis. Cell debris was removed by centrifugation at 14,000×g for 5 minutes at 4° C. and cell supernatants were analyzed by anti-ERK2 and anti-tau Western-blotting as described below.
[…] of total cell lysate was run on a 10% tris-glycine polyacrylamide gels (Novex, 1.5 mm×10 well) at 100 volts for 2.5 hors and Western-blotted on nitrocellulose (Novex) overnight at 23 volts or 1.5 hrs at 100V in transfer buffer [Towbin et al. Proc. Natl. Acad. Sci. USA 76, 4350-4354 (1979]) at 4° C. Blots were analyzed for ERK2 and phosphotyrosine immunoreactivity with anti-ERK1+2 (Z033; Zymed Laboratories, Inc.; 1:5,000) and anti-phosphotyrosine (4G10; Upstate Biotechnology Inc.; 1:1,000) mAbs. Blots were also analyzed for phosphorylation-sensitive Tau immuno-reactivity with mAb Tau-1 (Boehringer Mannheim; 1:5,000) and phosphorylation dependent mAb AT8 against FHF-tau (Biosource International; 1:200). Total Tau populations were detected by Tau-1 immunoblotting after treating blots for 16 hrs at 37° C. with 100 units/mL alkaline phosphatase (Gibco BRL) in 5 mL of 50 mM Tris-HCI (pH 8.5), 0.1 mM EDTA. All blots were developed using ECL (enhanced chemiluminescence) Western blotting protocol (Amersham Life Science) with horseradish peroxidase-linked sheep anti-mouse secondary antibody and analyzed on Kodak X-OMAT AR scientific imaging film. Films were scanned into Adobe Photoshop and imported into NIH Image 1.44, where densitometric analysis was performed. Changes in tau phosphorylation were assessed by normalizing densitometrically determined mAb Tau-1 immunoreactivities in cell extracts to Tau-1 reaction after dephosphorylation on the blot. Ratios of Tau-1 reactivity prior to and after dephosphorylation were expressed in % relative to the ratio obtained from control cells not treated with okadaic acid (100%). Proteins isolated form neonatal rat brain were used for comparison in some experiments.
Correlation of potencies of inhibition of PK40 activity in vitro, and of OA-induced ERK2 and tau phosphorylation in SY5Y cells. ERK2 phosphorylation was quantified as the ratio of low mobility/total ERK2, densitometrically determined from ERK2 Western-blots (e.g. of FIG. 1). Tau hyperphosphorylation was expressed as densitometrically measured Tau-1 immunoreactivity normalized to total Tau-1 reactivity after unmasking of the epitope by phosphatase treatment of the blots.
Prevention of tau hyperphosphorylation by the preferred compound CIII (FIG. 1). […]

tau hyperphosphorylation [2] = assay: Okadaic acid induced AD-like tau hyperphosphorylation in rat hippocampal brain slices; type: cell-based
Procedure: Adult male Long-Evans rats were subjected to CO2 anesthesia and sacrificed by decapitation. Brains were rapidly removed (<2 min) and whole hippocampus was dissected using a blunt spatula. Hippocampi were cut into […] slices using a Mcllwain tissue chopper and placed into ice cold low Ca^2+ Krebs-Bicarbonate buffer (pH 7.) of the following composition in mM: NaCl, 124; KCL, 3.33; CaCl2, 0.01; KH2PO4, 1.25; MgSO4, 1.33; nAhco3, 25.7; D-glucose, 10; HEPES, 20. The slices were separated and placed, 5-8 per tube, into 5 mL of low Ca^2+ buffer and incubated for at least 30 min at 33-34° C. with water saturated oxygenation (95% O2, 5% CO2). After 30 min the solution was replaced with buffer containing a physiological level of Ca^2+ (1.3 mM) and incubated for an additional 30 min.
After a total equilibration period of at least 1 hr, the slices were pretreated with vehicle or inhibitor at concentrations ranging from 30 nM to 10 μM for 1 hr, and then exposed to either vehicle or okadaic acid fora 90 min. After treatment, the buffer was removed and the slices were sonicated for 10-20 see in 500 μl of homogenization buffer (100 mM KH2PO4, pH 6.5, 2 mM EGTA, 2 mM EDTA, 1 μM okadaic acid and the following protease inhibitors: aprotinin (10 μg/ml); leupeptin (10 μM); chymostatin (40 μM); PMSF (100 μM) and pepstatin (6 μg/ml).
Following sonication, the samples were centrifuged 16,000×g for 30 min and the supernatants were removed. After boiling of the supernatants for 5 mn at 100° C. the concentration of protein was determined by the BCA assay (Pierce) using BSA as standard and samples were normalized to equal protein concentration.
Aliquots of the heat stable supernatants were separated on 10% SDS-PAGE and Western-blotted with phosphorylation-sensitive tau mAb Tau-1 and PHF-tau mAb AT8 as described for SY5Y studies. Blots were developed by an ECL kit (Amersham Life Science). AT8 immunoreactivity was quantitated on Kodak X0OMAT AR film using a Biorad imaging densitometer GS 670, the strongest signals not exceeding an O.D. of 12.

[3] = SY5Y, 1 μM okadaic acid, means of triplicate determinations, read-out: Inhibition in SY5Y cells of tau hyperphos. IC50
[4] = adult rat hippocampal slices, means of triplicate determinations, read-out: Inhibition of tau hyperphos. in brain slices IC50

COC(=O)[C@@]1(O)C[C@H]2C[C@@H]1n1c3ccccc3c3c4c(c5c6ccccc6n2c5c31)C(=O)NC4=O (relative stereo) [CIII, 9,12-Methano-1H-diindolo[1,2,3-fg:3′,2′,1′-kl]pyrrolo[3,4-I][1,6] benzodiazocine-10-carboxylic acid, 2,3,9,10,11,12-hexahydro-10-hydroxy-1,3-dioxomethyl ester, (9α,10β,12α)]
IC50 (tau hyperphosphorylation [1]; [3]): 3600 nM
Effect on normal tau phosphorylation (tau hyperphosphorylation [1]; SY5Y cells not treated by okadaic acid): apparently not affected
Fully effective doses for prevention of tau hyperphosphorylation (tau hyperphosphorylation [1]; SY5Y cells, 1 μM okadaic acid): > 1 µM
Prevention of okadaic acid induced tau hyperphosphorylation (FIG. 1) (tau hyperphosphorylation [1]; SY5Y cells, 1 μM okadaic acid, Tau-1 Western blot): prevents the tau hyperphosphorylation in a dose dependent manner
IC50 (tau hyperphosphorylation [2]; [4]): 900 nM

CNC(=O)[C@]1(O)CC2CC1n1c3ccccc3c3c4c(c5c6ccccc6n2c5c31)C(=O)NC4=O (stereo partly drawn) [CII, 9,12-Methano-1H-diindolo[1,2,3-fg:3′,2′,1′-kl]pyrrolo[3,4-I][1,6] benzodiazocine-10-carboxamide, 2,3,9,10,11,12-hexahydro-10-hydroxy-N-methyl-1,3-dioxo-(9α,10β,12α)]
IC50 (tau hyperphosphorylation [1]; [3]): 580 nM
IC50 (tau hyperphosphorylation [1]; SY5Y cells, okadaic acid, read-out: IC50 for prevention of tau hyperphosphorylation in SY5Y cells): 100 nM
IC50 (tau hyperphosphorylation [2]; adult rat hippocampal brain slices, FIG. 5, read-out: IC50 for prevention of tau hyperphosphorylation in brain slices): 100 nM
IC50 (tau hyperphosphorylation [2]; [4]): 180 nM
